{"source": "paper PMC4503722", "about": "“Novel Phenotypic Outcomes Identified for a Public Collection of Approved Drugs from a Publicly Accessible Panel of Assays” (PLoS ONE, 2015)", "key": {"HeLa cells": {"tested_on": "HeLa cells", "assay": "cells", "format": "cell-based"}, "DLD-1": {"tested_on": "DLD-1", "assay": "cells", "format": "cell-based", "conditions": "for IC50: read-out: Basal_Viability ATP DLD-1 summarized IC50"}, "SW480": {"tested_on": "SW480", "assay": "cells", "format": "cell-based", "conditions": "for IC50: read-out: Basal_Viability ATP SW480 summarized IC50"}, "HCT116": {"tested_on": "HCT116", "assay": "cells", "format": "cell-based", "conditions": "for IC50: read-out: Basal_Viability ATP HCT116 summarized IC50"}, "Colo320": {"tested_on": "Colo320", "assay": "cells", "format": "cell-based", "conditions": "for IC50: read-out: Basal_Viability ATP Colo 320 summarized IC50"}, "HT-29": {"tested_on": "HT-29", "assay": "cells", "format": "cell-based", "conditions": "for IC50: read-out: Basal_Viability ATP HT-29 summarized IC50"}, "RKO": {"tested_on": "RKO", "assay": "cells", "format": "cell-based", "conditions": "for IC50: read-out: Basal_Viability ATP RKO summarized IC50"}, "SNU-C1": {"tested_on": "SNU-C1", "assay": "cells", "format": "cell-based", "conditions": "for IC50: read-out: Basal_Viability ATP SNU-C1 summarized IC50"}, "[1]": {"tested_on": "endothelial tube formation in co-cultures of ECFCs and ADSCs treated with VEGF", "assay": "cells", "format": "cell-based, human"}, "[2]": {"tested_on": "ECFC/ADSC co-culture cell nuclei number"}}, "note": "Where two headings read alike, the source gives them in different places.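 Throughout, for Hela CellCycMod PI 4N summarized IC50: value tracks stimulation of 4N DNA content.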", "data": [{"smiles": "CC[n+]1c(-c2ccccc2)c2cc(N)ccc2c2ccc(N)cc21", "note": "[NCGC00091387-08]", "values": [{"measurement": "IC50", "setting": "HeLa cells; assay number 14, 2N, read-out: Hela CellCycMod PI 2N summarized IC50", "result": "> 10", "unit": "µM"}, {"measurement": "IC50", "setting": "HeLa cells; assay number 15, S phase, read-out: Hela CellCycMod PI S Phase summarized IC50", "result": "> 10", "unit": "µM"}, {"measurement": "IC50", "setting": "HeLa cells; assay number 16, 4N, read-out: Hela CellCycMod PI 4N summarized IC50", "result": "> 10", "unit": "µM"}, {"measurement": "IC50", "setting": "HeLa cells; assay number 17, MI, read-out: Hela CellCycMod PI MI summarized IC50", "result": "> 10", "unit": "µM"}, {"measurement": "IC50", "setting": "HeLa cells; assay number 18, cell number, read-out: Hela CellCycMod PI Cell Number summarized IC50", "result": "> 10", "unit": "µM"}, {"measurement": "IC50", "setting": "DLD-1; assay number 23, basal", "result": "> 20", "unit": "µM"}, {"measurement": "IC50", "setting": "SW480; assay number 24, basal", "result": "> 20", "unit": "µM"}, {"measurement": "IC50", "setting": "HCT116; assay number 25, basal", "result": 4.44, "unit": "µM"}, {"measurement": "IC50", "setting": "Colo320; assay number 27, basal", "result": "> 20", "unit": "µM"}, {"measurement": "IC50", "setting": "HT-29; assay number 28, basal", "result": "> 20", "unit": "µM"}, {"measurement": "IC50", "setting": "RKO; assay number 29, basal", "result": 3.35, "unit": "µM"}, {"measurement": "IC50", "setting": "SNU-C1; assay number 30, basal", "result": "> 20", "unit": "µM"}]}, {"smiles": "Cc1c(C)c2c(c(C)c1O)CC[C@@](C)(CCC[C@H](C)CCC[C@H](C)CCCC(C)C)O2", "note": "[NCGC00142625-10]", "values": [{"measurement": "IC50", "setting": "[1]; read-out: VEGF_ADSC\\ECFC Angio CD31 TubeArea summarized IC50", "result": "> 10", "unit": "µM"}, {"measurement": "IC50", "setting": "DLD-1; assay number 23, basal", "result": "> 20", "unit": "µM"}, {"measurement": "IC50", "setting": "SW480; assay number 24, basal", "result": "> 20", "unit": "µM"}, {"measurement": "IC50", "setting": "HCT116; assay number 25, basal", "result": "> 20", "unit": "µM"}, {"measurement": "IC50", "setting": "Colo320; assay number 27, basal", "result": "> 20", "unit": "µM"}, {"measurement": "IC50", "setting": "HT-29; assay number 28, basal", "result": "> 20", "unit": "µM"}, {"measurement": "IC50", "setting": "RKO; assay number 29, basal", "result": 2.61, "unit": "µM"}, {"measurement": "IC50", "setting": "SNU-C1; assay number 30, basal", "result": "> 20", "unit": "µM"}, {"measurement": "IC50", "setting": "[2]; read-out: VEGF_ADSC\\ECFC Angio Hoechst NucArea summarized IC50", "result": "> 10", "unit": "µM"}]}, {"smiles": "Cc1cc(C(C#N)c2ccc(Cl)cc2)c(Cl)cc1NC(=O)c1cc(I)cc(I)c1O", "note": "(stereo not drawn) [NCGC00166312-02]", "values": [{"measurement": "VEGF_ADSC\\ECFC Angio CD31 TubeArea IC50/EC50", "setting": "[1]", "result": "> 10", "unit": "µM"}, {"measurement": "Basal_Viability ATP DLD-1 IC50/EC50", "setting": "DLD-1", "result": 0.069, "unit": "µM"}, {"measurement": "Basal_Viability ATP SW480 IC50/EC50", "setting": "SW480", "result": 0.046, "unit": "µM"}, {"measurement": "Basal_Viability ATP HCT116 IC50/EC50", "setting": "HCT116", "result": 0.09775, "unit": "µM"}, {"measurement": "Basal_Viability ATP Colo 320 IC50/EC50", "setting": "Colo320", "result": 0.116, "unit": "µM"}, {"measurement": "Basal_Viability ATP HT-29 IC50/EC50", "setting": "HT-29", "result": 0.1255, "unit": "µM"}, {"measurement": "Basal_Viability ATP RKO IC50/EC50", "setting": "RKO", "result": 0.1971, "unit": "µM"}, {"measurement": "Basal_Viability ATP SNU-C1 IC50/EC50", "setting": "SNU-C1", "result": 0.0438, "unit": "µM"}, {"measurement": "VEGF_ADSC\\ECFC Angio Hoechst NucArea IC50/EC50", "setting": "[2]", "result": 7.36, "unit": "µM"}]}, {"smiles": "NCCCC[C@H](N[C@@H](CCc1ccccc1)C(=O)O)C(=O)N1CCC[C@H]1C(=O)O", "note": "[NCGC00179623-04]", "values": [{"measurement": "Hela CellCycMod PI 2N IC50/EC50", "setting": "HeLa cells; assay number 14, 2N", "result": "> 10", "unit": "µM"}, {"measurement": "Hela CellCycMod PI S Phase IC50/EC50", "setting": "HeLa cells; assay number 15, S phase", "result": "> 10", "unit": "µM"}, {"measurement": "Hela CellCycMod PI 4N IC50/EC50", "setting": "HeLa cells; assay number 16, 4N", "result": "> 10", "unit": "µM"}, {"measurement": "Hela CellCycMod PI MI IC50/EC50", "setting": "HeLa cells; assay number 17, MI", "result": "> 10", "unit": "µM"}, {"measurement": "Hela CellCycMod PI Cell Number IC50/EC50", "setting": "HeLa cells; assay number 18, cell number", "result": "> 10", "unit": "µM"}, {"measurement": "Basal_Viability ATP DLD-1 IC50/EC50", "setting": "DLD-1; assay number 23, basal", "result": 2.2356, "unit": "µM"}, {"measurement": "Basal_Viability ATP SW480 IC50/EC50", "setting": "SW480; assay number 24, basal", "result": 4.028, "unit": "µM"}, {"measurement": "Basal_Viability ATP HCT116 IC50/EC50", "setting": "HCT116; assay number 25, basal", "result": 3.3925, "unit": "µM"}, {"measurement": "Basal_Viability ATP Colo 320 IC50/EC50", "setting": "Colo320; assay number 27, basal", "result": "> 20", "unit": "µM"}, {"measurement": "Basal_Viability ATP HT-29 IC50/EC50", "setting": "HT-29; assay number 28, basal", "result": "> 6.667", "unit": "µM"}, {"measurement": "Basal_Viability ATP RKO IC50/EC50", "setting": "RKO; assay number 29, basal", "result": 8.8772, "unit": "µM"}, {"measurement": "Basal_Viability ATP SNU-C1 IC50/EC50", "setting": "SNU-C1; assay number 30, basal", "result": 2.5347, "unit": "µM"}]}, {"smiles": "Cc1cccc(Cc2cnc[nH]2)c1C.Cl", "note": "[NCGC00182057-03]", "values": [{"measurement": "IC50/EC50, Basal_Viability ATP DLD-1 (assay number 23)", "setting": "DLD-1; basal", "result": "> 20", "unit": "µM"}, {"measurement": "IC50/EC50, Basal_Viability ATP SW480 (assay number 24)", "setting": "SW480; basal", "result": "> 20", "unit": "µM"}, {"measurement": "IC50/EC50, Basal_Viability ATP HCT116 (assay number 25)", "setting": "HCT116; basal", "result": "> 20", "unit": "µM"}, {"measurement": "IC50/EC50, Basal_Viability ATP Colo 320 (assay number 27)", "setting": "Colo320; basal", "result": "> 20", "unit": "µM"}, {"measurement": "IC50/EC50, Basal_Viability ATP HT-29 (assay number 28)", "setting": "HT-29; basal", "result": "> 20", "unit": "µM"}, {"measurement": "IC50/EC50, Basal_Viability ATP RKO (assay number 29)", "setting": "RKO; basal", "result": "> 20", "unit": "µM"}, {"measurement": "IC50/EC50, Basal_Viability ATP SNU-C1 (assay number 30)", "setting": "SNU-C1; basal", "result": "> 20", "unit": "µM"}]}, {"smiles": "CCOC(=O)Oc1ccc(CCNC(=O)[C@H](CCSC)NC(C)=O)cc1OC(=O)OCC", "note": "[NCGC00249931-01]", "values": [{"measurement": "Basal_Viability ATP DLD-1 IC50/EC50", "setting": "DLD-1; assay number 23", "result": "> 20", "unit": "µM"}, {"measurement": "Basal_Viability ATP SW480 IC50/EC50", "setting": "SW480; assay number 24", "result": "> 20", "unit": "µM"}, {"measurement": "Basal_Viability ATP HCT116 IC50/EC50", "setting": "HCT116; assay number 25, basal", "result": "> 20", "unit": "µM"}, {"measurement": "Basal_Viability ATP Colo 320 IC50/EC50", "setting": "Colo320; assay number 27", "result": "> 20", "unit": "µM"}, {"measurement": "Basal_Viability ATP HT-29 IC50/EC50", "setting": "HT-29; assay number 28", "result": "> 20", "unit": "µM"}, {"measurement": "Basal_Viability ATP RKO IC50/EC50", "setting": "RKO; assay number 29", "result": "> 20", "unit": "µM"}, {"measurement": "Basal_Viability ATP SNU-C1 IC50/EC50", "setting": "SNU-C1; assay number 30", "result": "> 20", "unit": "µM"}]}, {"smiles": "O=c1c(C2CC(c3ccc(-c4ccc(Br)cc4)cc3)Cc3ccccc32)c(O)sc2ccccc12", "note": "(stereo not drawn) [NCGC00262959-01]", "values": [{"measurement": "Basal_Viability ATP DLD-1 IC50/EC50", "setting": "DLD-1; assay number 23", "result": 0.239, "unit": "µM"}, {"measurement": "Basal_Viability ATP SW480 IC50/EC50", "setting": "SW480; assay number 24", "result": 0.187, "unit": "µM"}, {"measurement": "Basal_Viability ATP HCT116 IC50/EC50", "setting": "HCT116; assay number 25, basal", "result": 0.4855, "unit": "µM"}, {"measurement": "Basal_Viability ATP Colo 320 IC50/EC50", "setting": "Colo320; assay number 27", "result": 0.7354, "unit": "µM"}, {"measurement": "Basal_Viability ATP HT-29 IC50/EC50", "setting": "HT-29; assay number 28", "result": 0.4364, "unit": "µM"}, {"measurement": "Basal_Viability ATP RKO IC50/EC50", "setting": "RKO; assay number 29", "result": 0.5378, "unit": "µM"}, {"measurement": "Basal_Viability ATP SNU-C1 IC50/EC50", "setting": "SNU-C1; assay number 30", "result": 0.2516, "unit": "µM"}]}]}
